Assay [1] deals with Sodium-dependent serotonin transporter (Homo sapiens, UniProt P31645). In words: Displacement of [3H]paroxetine from 5HTT. On the technique in general: Displacement assays read how much labelled ligand stays bound in the presence of the test substance.
In assay [2] the target is Sodium-dependent dopamine transporter (Homo sapiens, UniProt Q01959). In words: Displacement of [3H]WIN-35428 from DAT.
For assay [3], the target named is Sodium-dependent noradrenaline transporter (Homo sapiens, UniProt P23975). As to the kind of experiment: Displacement of [3H]nisoxetine from NET.
Assay [4] is filed under the species Homo sapiens. In words: Selectivity for DAT over 5HTT.
The species entered for assay [5] is Homo sapiens. In words: Selectivity for DAT over NET.

Chain of Sodium-dependent noradrenaline transporter (P23975 whole entry): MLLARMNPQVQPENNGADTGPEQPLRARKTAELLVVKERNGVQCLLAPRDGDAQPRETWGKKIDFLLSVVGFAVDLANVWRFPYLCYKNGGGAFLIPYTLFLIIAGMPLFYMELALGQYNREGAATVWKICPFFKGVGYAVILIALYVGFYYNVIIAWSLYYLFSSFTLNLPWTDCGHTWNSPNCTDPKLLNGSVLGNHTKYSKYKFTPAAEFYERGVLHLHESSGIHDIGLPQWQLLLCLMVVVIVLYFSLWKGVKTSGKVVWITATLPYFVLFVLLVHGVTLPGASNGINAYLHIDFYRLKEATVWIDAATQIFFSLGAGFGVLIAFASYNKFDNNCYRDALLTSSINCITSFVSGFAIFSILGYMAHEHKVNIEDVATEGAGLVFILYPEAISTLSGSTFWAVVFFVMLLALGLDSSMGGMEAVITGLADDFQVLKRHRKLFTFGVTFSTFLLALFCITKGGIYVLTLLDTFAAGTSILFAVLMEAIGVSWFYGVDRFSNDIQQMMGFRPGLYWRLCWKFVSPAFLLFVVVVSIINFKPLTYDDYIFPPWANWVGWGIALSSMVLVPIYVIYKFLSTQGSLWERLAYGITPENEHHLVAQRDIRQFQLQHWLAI
Chain of Sodium-dependent dopamine transporter (Q01959 whole entry): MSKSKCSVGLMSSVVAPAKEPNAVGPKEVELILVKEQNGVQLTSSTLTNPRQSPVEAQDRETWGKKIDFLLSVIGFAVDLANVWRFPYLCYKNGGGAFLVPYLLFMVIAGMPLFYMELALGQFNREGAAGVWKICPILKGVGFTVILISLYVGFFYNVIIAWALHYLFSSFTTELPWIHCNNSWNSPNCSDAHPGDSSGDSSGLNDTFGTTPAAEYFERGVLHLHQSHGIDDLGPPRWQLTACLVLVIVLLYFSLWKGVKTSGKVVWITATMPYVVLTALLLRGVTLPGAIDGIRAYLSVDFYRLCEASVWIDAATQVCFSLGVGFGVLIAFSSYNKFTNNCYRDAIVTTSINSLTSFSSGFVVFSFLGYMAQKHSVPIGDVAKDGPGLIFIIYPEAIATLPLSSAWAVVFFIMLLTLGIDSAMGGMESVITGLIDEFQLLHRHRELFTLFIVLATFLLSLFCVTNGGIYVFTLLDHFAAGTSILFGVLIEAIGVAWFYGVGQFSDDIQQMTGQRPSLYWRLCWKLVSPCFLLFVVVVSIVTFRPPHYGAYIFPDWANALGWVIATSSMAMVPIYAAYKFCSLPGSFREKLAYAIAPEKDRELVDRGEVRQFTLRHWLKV
Chain of Sodium-dependent serotonin transporter (P31645 whole entry): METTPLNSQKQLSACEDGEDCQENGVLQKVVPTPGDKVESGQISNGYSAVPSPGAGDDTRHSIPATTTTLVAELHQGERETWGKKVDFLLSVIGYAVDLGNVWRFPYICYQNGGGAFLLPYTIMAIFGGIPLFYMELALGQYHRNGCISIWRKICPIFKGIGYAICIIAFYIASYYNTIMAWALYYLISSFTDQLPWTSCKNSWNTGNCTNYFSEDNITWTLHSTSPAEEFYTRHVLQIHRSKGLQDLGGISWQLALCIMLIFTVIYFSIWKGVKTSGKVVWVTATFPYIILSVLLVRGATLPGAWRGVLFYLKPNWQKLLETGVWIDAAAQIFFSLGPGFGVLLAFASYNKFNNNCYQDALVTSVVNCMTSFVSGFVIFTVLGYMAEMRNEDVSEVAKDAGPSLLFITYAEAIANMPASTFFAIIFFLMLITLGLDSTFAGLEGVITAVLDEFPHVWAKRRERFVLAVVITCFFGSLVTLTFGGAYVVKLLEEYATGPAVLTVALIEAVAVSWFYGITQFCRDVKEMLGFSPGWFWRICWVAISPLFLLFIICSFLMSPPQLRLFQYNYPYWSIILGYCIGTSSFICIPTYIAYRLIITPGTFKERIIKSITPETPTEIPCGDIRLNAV

Broadly, the IC50 is the midpoint of a concentration-inhibition curve. By Ki is commonly meant the equilibrium dissociation constant of an inhibitor or competing ligand from its target. For the molecule `Cc1ccc([C@H]2CC3CCC([C@H]2c2ccccc2)N3C)cc1` (some centres not stated), the IC50 came to 1.1 µM in assay [1], 0.00196 µM in assay [2] and 0.48 µM in assay [3]. Further, the Ki in assay [1] was 0.1 µM; in assay [3], 0.28 µM.
In assay [1], `Cc1ccc([C@@H]2CC3CCC([C@@H]2c2ccc(C)cc2)N3C)cc1` (some centres not stated) registered an IC50 of 10 µM and a Ki of 0.91 µM. Further, in assay [3], the IC50 is 13 µM and the Ki stood at 7.8 µM.
In assay [1], `COc1ccc([C@H]2C3CCC(C[C@H]2c2ccc(C)cc2)N3C)cc1` (some centres not stated) gave an IC50 of 1.53 µM and a Ki of 0.376 µM. For the same molecule, the IC50 in assay [2] turned out to be 0.238 µM.
For `COc1ccc([C@@H]2C3CCC(C[C@@H]2c2ccc(C)cc2)N3C)cc1` (some centres not stated), the figures for the IC50 in assay [1], in assay [2] and in assay [3] were 1.67 µM, 0.00123 µM and 0.282 µM, respectively. For the same molecule, the Ki in assay [1] amounted to 0.41 µM; in assay [3] it was 0.191 µM.
`CN1C2CCC1[C@H](c1ccccc1)[C@H](c1ccccc1)C2` (some centres not stated): the IC50 in assay [1] was 41 µM; in assay [2], 0.69 µM; in assay [3], 1.04 µM. Also, the Ki in assay [1] stood at 3.7 µM; in assay [3], 0.626 µM.
Turning to `Cc1ccc([C@H]2CC3CCC([C@H]2c2ccc(C)cc2)N3C)cc1` (some centres not stated), the IC50 in assay [1] turned out to be 1.01 µM; in assay [2] it was 0.00135 µM; in assay [3], 0.78 µM. The Ki in assay [1] stood at 0.25 µM; in assay [3] it was 0.39 µM. In addition, the Selectivity ratio in assay [4] was 185; in assay [5], 289.
As for `Cc1ccc([C@@H]2CC3CCC([C@@H]2c2ccccc2)N3C)cc1` (some centres not stated), the IC50 is 16 µM in assay [1], 0.43 µM in assay [2] and 4.85 µM in assay [3]. Moreover, the Ki in assay [1] is 1.5 µM; in assay [3], 2.92 µM.
In the same order, the values of `Cc1ccc([C@H]2C3CCC(C[C@H]2c2ccccc2)N3C)cc1` (some centres not stated) are 11 µM, 0.54 µM, 4.7 µM, 1 µM and 2.8 µM.
`CN1C2CCC1[C@@H](c1ccccc1)[C@@H](c1ccccc1)C2` (some centres not stated): the IC50 in assay [1] is 21 µM; in assay [2], 0.0126 µM; in assay [3], 0.92 µM. Besides, the Ki in assay [1] amounted to 1.9 µM; in assay [3] it was 0.55 µM.
For `Cc1ccc([C@@H]2C3CCC(C[C@@H]2c2ccccc2)N3C)cc1` (some centres not stated) the same measures were 45 µM, 0.0224 µM, 6.1 µM, 4.1 µM and 3.7 µM.
Take `Cc1ccc([C@H]2CC3CCC([C@H]2c2ccc(F)cc2)N3C)cc1` (some centres not stated): the IC50 in assay [1] was determined as 0.1 µM; in assay [2] it was 0.0009 µM; in assay [3], 0.132 µM. Also, the values for the inhibition constant (Ki) in assay [1] and in assay [3] were 0.025 µM and 0.061 µM, respectively.
Regarding `COc1ccc([C@@H]2C3CCC(C[C@@H]2c2ccc(C)cc2)N3C)cc1OC` (some centres not stated), the results for the IC50 in assay [1], in assay [2] and in assay [3] were 13.7 µM, 0.0233 µM and 10 µM, respectively. The Ki in assay [1] turned out to be 1.25 µM; in assay [3], 6 µM.
As for `COc1ccc([C@@H]2C3CCC(C[C@H]2c2ccc(C)cc2)N3C)cc1OC` (some centres not stated), the IC50 came to 16.2 µM in assay [1], 0.98 µM in assay [2] and 78 µM in assay [3]. Further, the Ki stood at 1.47 µM in assay [1] and 46 µM in assay [3].
Molecule `COC(=O)[C@@H]1C2CC[C@H](C[C@@H]1c1ccc(C)cc1)N2C` showed an IC50 in assay [2] of 0.0234 µM. In assay [3], this molecule showed an IC50 of 3.85 µM and a Ki of 1.93 µM.
